Source: PMC11876601 (Molecular Systems Biology, 2025)
Where “and” joins values, the source holds several entries; their conditions need not be identical. Equal values may be shown once. Read-outs that look alike come from different tables or passages of the source.

How the values were obtained:
PDO UME053 = test: PDO viability assay (CellTiter-Glo, 72 h); format: cell-based, human; parameters: Curve top / Curve bottom: scale not given here;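 for Curve top: fraction of plate-wise median vehicle signal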
Procedure: Primary patient-derived PDAC organoid (PDO) experiments were performed in the laboratories of Prof. Maximilian Reichert (University Hospital of the TU Munich, Germany, PDO set 1: B250, B535, B678) and Prof. Jens T. Siveke (University Hospital Essen, Germany; PDO set 2: UME008, UME012, UME051, UME053, UME060, UME061). PDOs were generated from surgical resection, EUS-guided fine needle biopsy (EUS-FNB), or ascites (Appendix Table S2). Surgical specimens were first minced with a sterile scalpel and subsequently washed with Anti-Anti solution and washing medium (PDO set 1), or vice versa (PDO set 2; Appendix Table S3). Biopsy samples were directly washed with an Anti-Anti solution and washing medium. Samples were digested using 1 ml of digestion medium at 37 °C while shaking, and the enzymatic reaction was stopped by adding 15 ml of washing medium (Appendix Table S3). If samples of PDO set 1 were blood-stained, tissue pellets were first incubated with ACK lysing buffer/red blood cells lysis buffer (Thermo Fisher Scientific) for 5 min and then digested using TrypLE (Thermo Fisher Scientific). The reversed procedure was applied for blood-stained samples of PDO set 2. For PDO generation from ascites, the material was first spun down at 500 × g for 5 min. Then, washing medium was added and the suspension was centrifuged at 300 × g for 5 min. If the pellet was blood-stained, ACK lysis buffer was added and incubated at room temperature.
For viability assays in PDOs, confluent organoids were removed from medium, and Matrigel was dissolved by adding 200 μl (PDO set 1) or 2 ml (PDO set 2) of Cell Recovery Solution (Corning), and additionally 500 μl of DPBS (PDO set 1 only). Samples were transferred into a falcon and incubated on ice for 30 min, followed by centrifugation at 300 × g at 4 °C for 5 min (after adding 10 ml washing medium for PDO set 2). Subsequently, TrypLE Express Enzyme (Thermo Fisher) was added to cell pellets and incubated for 2 × 5 min at 37 °C. The enzymatic reaction was quenched by DPBS (PDO set 1) or washing medium (PDO set 2), and samples were washed by centrifugation at 300 × g at 4 °C for 5 min. Five hundred cells/well were seeded in 384-well plates (Corning) in 50 μl of PDO medium containing 10% Matrigel. To allow PDO generation, cells were incubated for 4 days at 37 °C and 5% CO2. […] Experiments were pipetted manually (PDO set 1) or automatically using a TECAN D300e Digital Dispenser (HP; PDO set 2). Treatments were performed in eight replicates, except for PDO PPES045 (quadruplicates). After 72 h, cell viability was measured using the CellTiter-Glo Luminescent Cell Viability Assay (Promega) diluted 1:5 in the final volume of the well. After 20 min of incubation at room temperature under gentle shaking, the acquisition was performed in the microplate reader VantaSTAR (BMG Labtech) using 3000 gain for the amplification measurement of a detected signal (PDO set 1) or the Spark Multimode microplate reader (TECAN) at 800 ms integration time (PDO set 2).

SLK = target: SLK; parameters: method as in Reinecke et al. (2023); conditions: 5 cell line mix lysate, Kinobeads ε, ref Reinecke et al. (2023), cited from earlier work
TBK1 = conditions: TBK1, 5 cell line mix lysate, Kinobeads ε, ref Reinecke et al. (2023), cited from earlier work
ABL2 = test system: ABL2; parameters: method as in Reinecke et al. (2023); conditions: ABL2, 5 cell line mix lysate, Kinobeads ε, ref Reinecke et al. (2023), cited from earlier work
ULK1 = test system: ULK1; parameters: method as in Reinecke et al. (2023); conditions: ULK1, 5 cell line mix lysate, Kinobeads ε, ref Reinecke et al. (2023), cited from earlier work
FES = target: FES; parameters: method as in Reinecke et al. (2023); conditions: 5 cell line mix lysate, Kinobeads ε, ref Reinecke et al. (2023), cited from earlier work
PRKAB2 = test system: PRKAB2; parameters: method as in Klaeger et al. (2017); conditions: lysate 4 cell line mix (Colo205, K-562, MV-4-11, and SK-N-BE(2)), Kinobeads y, ref Klaeger et al. (2017); cited from earlier work
MAP4K5 = test system: MAP4K5; parameters: method as in Klaeger et al. (2017); conditions: MAP4K5, 4 cell line mix lysate, Kinobeads y, ref Klaeger et al. (2017); cited from earlier work
RPS6KA6 = test system: RPS6KA6; parameters: method as in Klaeger et al. (2017); conditions: lysate 4 cell line mix (Colo205, K-562, MV-4-11, and SK-N-BE(2)), Kinobeads y, ref Klaeger et al. (2017); cited from earlier work
PRKAB1 = test system: PRKAB1; parameters: method as in Klaeger et al. (2017); conditions: lysate 4 cell line mix (Colo205, K-562, MV-4-11, and SK-N-BE(2)), Kinobeads y, ref Klaeger et al. (2017); cited from earlier work
[1] = PDO UME053, GEM + Elimusertib (ATRi) dose1, per replicate
[2] = PDO UME053, GEM + Elimusertib (ATRi) dose2, per replicate
[3] = PDO UME053, GEM + Elimusertib (ATRi) dose3, per replicate
[4] = PDO UME053, GEM alone, per replicate
[5] = PDO UME053, experiment GEM (GEM alone), curve fit

SMILES: Nc1ccn([C@@H]2O[C@H](CO)[C@@H](O)C2(F)F)c(=O)n1 [GEM, Gemcitabine]
- EC50 (PDO UME053; Homo sapiens, PDO UME053, GEM + Elimusertib (ATRi) dose1, mean of replicates, read-out: EC50 mean): 3.76 nM
- EC50 (PDO UME053; Homo sapiens, PDO UME053, GEM + Elimusertib (ATRi) dose1, per replicate, read-out: EC50): 4.76 nM
- EC50 (PDO UME053; Homo sapiens, PDO UME053, GEM + Elimusertib (ATRi) dose1, per replicate, read-out: pEC50 (converted)): 4.79 nM
- EC50 (PDO UME053; Homo sapiens, PDO UME053, GEM + Elimusertib (ATRi) dose2, mean of replicates, read-out: EC50 mean): 2.48 nM
- EC50 (PDO UME053; Homo sapiens, PDO UME053, GEM + Elimusertib (ATRi) dose3, mean of replicates, read-out: EC50 mean): 2.58 nM
- EC50 (PDO UME053; Homo sapiens, PDO UME053, GEM alone, mean of replicates, read-out: EC50 mean): 3.83 nM
- EC50 (PDO UME053; Homo sapiens, PDO UME053, GEM alone, per replicate, read-out: EC50): 4.9 nM
- EC50 (PDO UME053; Homo sapiens, PDO UME053, GEM alone, per replicate, read-out: pEC50 (converted)): 4.9 nM
- EC50 (PDO UME053; Homo sapiens, PDO UME053, GEM alone, read-out: EC50 mean): 3.8 nM
- EC50 (PDO UME053; Homo sapiens, PDO UME053, experiment GEM (GEM alone), mean of replicates, read-out: EC50 mean): 3.83 nM
- EC50 (PDO UME053; Homo sapiens, PDO UME053, experiment GEM (GEM alone), single replicates, read-out: pEC50 (converted)): 5.75 nM
- EC50 (PDO UME053; Homo sapiens, SET-2, PDO UME053, PDO set 2, experiment GEM (GEM alone), single replicates, read-out: EC50): 5.76 nM
- Curve bottom (PDO UME053; [1]): 4.76 and 3.51 and 3.42 and 4.59 and 3.68 and 3.05
- Curve slope (PDO UME053; [1]): -0.0232 and -0.0231 and -0.0214 and -0.0351 and 0.00541 and -0.00734
- Curve top (PDO UME053; [1]): 1.03 and 0.94
- pEC50 (PDO UME053; [1]): 8.45 and 8.47 and 8.34 and 8.43 and 8.52
- EC50 (PDO UME053; PDO UME053, GEM + Elimusertib (ATRi) dose1, per replicate, read-out: EC50): 3.51 nM and 3.42 nM and 4.59 nM and 3.68 nM and 3.05 nM
- Curve bottom (PDO UME053; [2]): 3.13 and 3.73 and 2.51 and 1.19 and 1.27
- Curve slope (PDO UME053; [2]): -0.0242 and -0.026 and -0.0173 and -0.00205 and -0.00262
- Curve top (PDO UME053; [2]): 1.01 and 0.93 and 0.97 and 0.99
- pEC50 (PDO UME053; [2]): 8.50 and 8.43 and 8.60 and 8.92 and 8.90
- EC50 (PDO UME053; PDO UME053, GEM + Elimusertib (ATRi) dose2, per replicate, read-out: EC50): 3.13 nM and 3.73 nM and 2.51 nM and 1.19 nM and 1.27 nM
- Curve bottom (PDO UME053; [3]): 2.72 and 2.86 and 2.18 and 1.18 and 1.85
- Curve slope (PDO UME053; [3]): -0.02 and -0.027 and -0.013 and -0.0115
- Curve top (PDO UME053; [3]): 0.85 and 0.95 and 0.90
- pEC50 (PDO UME053; [3]): 8.56 and 8.54 and 8.66 and 8.93 and 8.73
- EC50 (PDO UME053; PDO UME053, GEM + Elimusertib (ATRi) dose3, per replicate, read-out: EC50): 2.72 nM and 2.86 nM and 2.18 nM and 1.18 nM and 1.85 nM
- Curve bottom (PDO UME053; [4]): 4.90 and 3.43 and 2.87 and 2.77 and 4.39 and 2.68
- Curve slope (PDO UME053; [4]): -0.0183 and 6.71e-5 and 0.00446 and -0.00144 and 0.00242 and 0.00525
- Curve top (PDO UME053; [4]): 1.30 and 1.34
- pEC50 (PDO UME053; [4]): 8.46 and 8.54 and 8.56 and 8.36 and 8.57
- EC50 (PDO UME053; PDO UME053, GEM alone, per replicate, read-out: EC50): 3.43 nM and 2.87 nM and 2.77 nM and 4.39 nM and 2.68 nM
- EC50 (PDO UME053; PDO UME053, PDO set 2, experiment GEM (GEM alone), single replicates, read-out: EC50): 3.82 nM
- Curve bottom (PDO UME053; [5]): 5.76 and 3.82
- Curve top (PDO UME053; [5]): 0.62
- pEC50 (PDO UME053; PDO UME053, experiment GEM (GEM alone), single replicates): 8.42

SMILES: COc1cc(N2CCC(N3CCN(C)CC3)CC2)ccc1Nc1ncc(Cl)c(Nc2ccccc2P(C)(C)=O)n1 [Brigatinib]
- Kd (SLK; read-out: KDapp): 466 nM
- EC50 (SLK): 523 nM
- pKDapp (SLK): 6.33
- EC50 (TBK1): 1020 nM
- pKDapp (TBK1): 6.18
- Kd (TBK1; read-out: KDapp): 655 nM
- EC50 (ABL2): 3.24 µM
- pKDapp (ABL2): 5.97
- Kd (ABL2; read-out: KDapp): 1070 nM
- EC50 (ULK1): 56.7 nM
- pKDapp (ULK1): 7.42
- Kd (ULK1; read-out: KDapp): 37.9 nM
- Kd (FES; read-out: KDapp): 63 nM
- EC50 (FES): 170 nM
- pKDapp (FES): 7.20

SMILES: C[C@]12O[C@H](C[C@]1(O)CO)n1c3ccccc3c3c4c(c5c6ccccc6n2c5c31)CNC4=O [Lestaurtinib]
- EC50 (PRKAB2): 3.52 µM
- EC50 (RPS6KA6): 2330 nM
- EC50 (PRKAB1): 1790 nM
